Experimental data from patent US12109197B2, “Combinations of β-lactam compounds and probenecid and uses thereof” (Iterum Therapeutics International Limited, priority 2018, dated 2024).
Several values for one entry are separate records, joined by “and”; a condition that tells them apart may be missing. Equal entries are not always repeated. Where two headings read alike, the source gives them in different places.

Key:
[1] = format: in vivo, human; settings: for Tlast / Tmax: median; for TAMIC1: minimum concentration 0.5 μg/mL; for TAMIC2: minimum concentration 1.0 μg/mL
Method: A Phase 1, randomized, investigator-blind, subject-blind, sponsor-open, placebo-controlled, single and multiple dose study of Compound II-2b was further conducted. There were 6 planned cohorts of subjects. Each cohort was planned to enroll 12 subjects, for a total of 72 planned subjects. Subjects in the multidose cohort were dosed for 10 days; new subjects were recruited for each cohort. Subjects in these cohorts, on Days 1 through 9, were dosed BTD (12 hours apart) at approximately 0800 and 2000 hours. On Day 10, subjects were to be dosed only once at approximately 0800 hours.

[2] = format: in vivo, human; settings: for TAMIC0.5 / TAMIC1.0 / Tmax: median; for Ae24%: percent of administered dose, adjusted for MW; for CLr: renal clearance; for Ae24: urine over 24 hours postdose
Text: The pharmacokinetics of Compound III-2b wer studies in a randomized, subject-blinded, investigator- and sponsor-open, placebo-controlled, multiple-dose study, run in parallel cohorts. There were 7 cohorts of approximately 10 subjects each (4:1 active:placebo).

[3] = for Cmax / TAMIC0.5 / TAMIC1.0 / Tmax / AUCtau / AUCinf / AUClast / t1/2: plasma; for Tmax: median (minimum-maximum); for AUCtau: time 0 to 12 hours
Method: Subjects were to be dosed twice a day (every 12 hours) for 6 days and on Day 7 they were to be dosed once. All treatment groups could be run in parallel or sequentially. Subjects were allocated based on the randomization list. Randomization numbers were assigned sequentially as subjects entered into groups on the basis of their order of entry into the study. Subjects who withdrew for reasons unrelated to safety may have been replaced. Blood samples were obtained at prespecified intervals in order to characterize pharmacokinetics.

[4] = 2000 mg BID, Study Day 1, plasma
[5] = 2000 mg BID, Study Day 10, plasma
[6] = Cohort 2: 1 g BID, fasted, Day 1
[7] = Cohort 2: 1 g BID, fasted, Day 7
[8] = Cohort 3: 1.5 g BID, fed, Day 1
[9] = Cohort 3: 1.5 g BID, fed, Day 7
[10] = Cohort 4: 0.5 g BID, fasted, Day 1
[11] = Cohort 4: 0.5 g BID, fasted, Day 7

CCC(CC)C(=O)OCOC(=O)C1=C(S[C@H]2CC[S@@+]([O-])C2)S[C@@H]2[C@@H]([C@@H](C)O)C(=O)N12 [Compound III-2b, Sulopenem Etzadroxil]
AUCinf [1, 4]: 18100 ng·h/mL | AUCtau [1, 4]: 17500 ng·h/mL | Cmax [1, 4]: 6090 ng/mL | t1/2 [1, 4]: 1.66 h | Tlast [1, 4]: 8.00 h | Tmax [1, 4]: 1.00 h | TAMIC1 [1, 4]: 6.93 | TAMIC2 [1, 4]: 5.57 | Ae % ([1]; 2000 mg BID, Study Day 6, urine, percent of sulopenem dose excreted): 17.3 (26) % | Ae24 ([1]; 2000 mg BID, Study Day 6, urine, sulopenem excreted unchanged over 24 hours): 253000 (26) ug | Rac ([1]; 2000 mg BID, Study Day 10, accumulation ratio): 0.685 | AUCtau [1, 5]: 12200 ng·h/mL | Cmax [1, 5]: 5480 ng/mL | Ctrough [1, 5]: 0.00 ng/mL | t1/2 [1, 5]: 1.27 h | Tlast [1, 5]: 8.00 h | Tmax [1, 5]: 1.00 h | TAMIC1 [1, 5]: 4.70 | TAMIC2 [1, 5]: 3.61 | AUCtau ([1]; 2000 mg, Day 1): 17500 ng·h/mL | AUCtau ([1]; 2000 mg, Day 10): 12200 ng·h/mL | AUCinf ([2]; 500 mg FED, Day 1): 3400 ng·h/mL | AUCinf ([2]; 500 mg FED, Day 7): 2990 ng·h/mL | AUCinf ([2]; 1000 mg FED, Day 1): 9430 ng·h/mL | AUCinf ([2]; 1000 mg FED, Day 7): 7800 ng·h/mL | AUCinf ([2]; 1000 mg TID FED, Day 1): 8290 ng·h/mL | AUCinf ([2]; 1000 mg TID FED, Day 7): 6750 ng·h/mL | AUCinf ([2]; 1000 mg, Day 1): 6680 ng·h/mL | AUCinf ([2]; 1000 mg, Day 7): 6020 ng·h/mL | AUCinf ([2]; 1500 mg, Day 1): 12900 ng·h/mL | AUCinf ([2]; 1500 mg, Day 7): 9950 ng·h/mL | AUCinf ([2]; Cohort 1: 1 g BID, fed, Day 1): 9430 (13) ng · h/mL | AUClast ([2]; Cohort 1: 1 g BID, fed, Day 1): 9330 (13) ng · h/mL | Cmax ([2]; Cohort 1: 1 g BID, fed, Day 1): 4420 (24) ng/mL | t½ ([2]; Cohort 1: 1 g BID, fed, Day 1): 0.823 (13) h | TAMIC0.5 ([2]; Cohort 1: 1 g BID, fed, Day 1): 4.35 h | TAMIC1.0 ([2]; Cohort 1: 1 g BID, fed, Day 1): 3.21 h | Tmax ([2]; Cohort 1: 1 g BID, fed, Day 1): 1.50 h | AUCinf ([2]; Cohort 1: 1 g BID, fed, Day 7): 7800 (17) ng · h/mL | AUClast ([2]; Cohort 1: 1 g BID, fed, Day 7): 7670 (17) ng · h/mL | Cmax ([2]; Cohort 1: 1 g BID, fed, Day 7): 3770 (23) ng/mL | t½ ([2]; Cohort 1: 1 g BID, fed, Day 7): 0.761 (11) h | Rac ([2]; Cohort 1: 1 g BID, fed, Day 7, accumulation ratio): 0.832 (13) | TAMIC0.5 ([2]; Cohort 1: 1 g BID, fed, Day 7): 3.32 h | TAMIC1.0 ([2]; Cohort 1: 1 g BID, fed, Day 7): 2.64 h | Tmax ([2]; Cohort 1: 1 g BID, fed, Day 7): 2.00 h | Ae24% ([2]; Cohort 1: 1 g BID, fed, Day 7): 19.0 (27) % | CLr ([2]; Cohort 1: 1 g BID, fed, Day 7): 17.4 (19) L/h | Ae24 ([2]; Cohort 1: 1 g BID, fed, Day 7): 138.7 (27) mg | AUCinf [2, 6]: 6680 (20) ng · h/mL | AUClast [2, 6]: 6770 (22) ng · h/mL | Cmax [2, 6]: 2760 (13) ng/mL | t½ [2, 6]: 1.37 (33) h | TAMIC0.5 [2, 6]: 3.69 h | TAMIC1.0 [2, 6]: 2.91 h | Tmax [2, 6]: 1.50 h | AUCinf [2, 7]: 6020 (16) ng · h/mL | AUClast [2, 7]: 6070 (19) ng · h/mL | Cmax [2, 7]: 2410 (33) ng/mL | t½ [2, 7]: 1.08 (24) h | Rac ([2]; Cohort 2: 1 g BID, fasted, Day 7, accumulation ratio): 0.910 (11) | TAMIC0.5 [2, 7]: 4.18 h | TAMIC1.0 [2, 7]: 2.72 h | Tmax [2, 7]: 1.75 h | Ae24% [2, 7]: 10.2 (23) % | CLr [2, 7]: 12.2 (30) L/h | Ae24 [2, 7]: 74.4 (23) mg | AUCinf [2, 8]: 12900 (23) ng · h/mL | AUClast [2, 8]: 12100 (21) ng · h/mL | Cmax [2, 8]: 3700 (42) ng/mL | t½ [2, 8]: 1.20 (14) h | TAMIC0.5 [2, 8]: 6.34 h | TAMIC1.0 [2, 8]: 4.81 h | Tmax [2, 8]: 2.50 h | AUCinf [2, 9]: 9950 (15) ng · h/mL | AUClast [2, 9]: 9710 (15) ng · h/mL | Cmax [2, 9]: 2670 (28) ng/mL | t½ [2, 9]: 0.901 (14) h | Rac ([2]; Cohort 3: 1.5 g BID, fed, Day 7, accumulation ratio): 0.809 (14) | TAMIC0.5 [2, 9]: 5.96 h | TAMIC1.0 [2, 9]: 4.44 h | Tmax [2, 9]: 2.51 h | AUCinf [2, 10]: 3400 (20) ng · h/mL | AUClast [2, 10]: 3260 (22) ng · h/mL | Cmax [2, 10]: 1470 (34) ng/mL | t½ [2, 10]: 0.862 (19) h | TAMIC0.5 [2, 10]: 2.66 h | TAMIC1.0 [2, 10]: 1.38 h | Tmax [2, 10]: 1.03 h | AUCinf [2, 11]: 2990 (23) ng · h/mL | AUClast [2, 11]: 2730 (27) ng · h/mL | Cmax [2, 11]: 1310 (22) ng/mL | t½ [2, 11]: 0.797 (16) h | Rac ([2]; Cohort 4: 0.5 g BID, fasted, Day 7, accumulation ratio): 0.873 (29) | TAMIC0.5 [2, 11]: 2.38 h | TAMIC1.0 [2, 11]: 0.803 h | Tmax [2, 11]: 1.50 h | AUCinf ([2]; Cohort 7: 1 g TID, fed, Day 1): 8290 (6) ng · h/mL | AUClast ([2]; Cohort 7: 1 g TID, fed, Day 1): 7670 (13) ng · h/mL | Cmax ([2]; Cohort 7: 1 g TID, fed, Day 1): 3320 (36) ng/mL | t½ ([2]; Cohort 7: 1 g TID, fed, Day 1): 1.26 (40) h | TAMIC0.5 ([2]; Cohort 7: 1 g TID, fed, Day 1): 4.90 h | TAMIC1.0 ([2]; Cohort 7: 1 g TID, fed, Day 1): 3.32 h | Tmax ([2]; Cohort 7: 1 g TID, fed, Day 1): 1.75 h | AUCinf ([2]; Cohort 7: 1 g TID, fed, Day 7): 6750 (11) ng · h/mL | AUClast ([2]; Cohort 7: 1 g TID, fed, Day 7): 6230 (16) ng · h/mL | Cmax ([2]; Cohort 7: 1 g TID, fed, Day 7): 2090 (28) ng/mL | t½ ([2]; Cohort 7: 1 g TID, fed, Day 7): 0.790 (2) h | Rac ([2]; Cohort 7: 1 g TID, fed, Day 7, accumulation ratio): 0.827 (21) | TAMIC0.5 ([2]; Cohort 7: 1 g TID, fed, Day 7): 4.62 h | TAMIC1.0 ([2]; Cohort 7: 1 g TID, fed, Day 7): 3.22 h | Tmax ([2]; Cohort 7: 1 g TID, fed, Day 7): 4.00 h | Rac ([2]; in vivo): 1.10 (24) | AUCtau, GM ([3]; Day 7, With Probenecid): 5325.20 ng·h/mL | Cmax, GM ([3]; Day 7, With Probenecid): 1532.10 ng/mL | AUCtau, GM ([3]; Day 7, Without Probenecid): 3084.36 ng·h/mL | Cmax, GM ([3]; Day 7, Without Probenecid): 1233.18 ng/mL | AUC of sulopenem on Day 7 compared with Day 1 ([3]; administered alone through the oral route): lower than that on Day 1 | AUC of sulopenem on Day 7 compared with Day 1 ([3]; co-administered with probenecid): increased on Day 7 beyond that seen on Day 1 | Cmax ([3]; fasted, Day 1): 1699.1 (31.64) ng/mL | TAMIC0.5 ([3]; fasted, Day 1): 2.6348 (14.85) h | TAMIC1.0 ([3]; fasted, Day 1): 1.0758 (94.61) h | Tmax ([3]; fasted, Day 1): 1.0000 (0.4830-2.017) h | AUCtau ([3]; fasted, Day 1): 3623.8 (19.19) hr*ng/mL and 3623.8 hr*ng/mL | AUCinf ([3]; fasted, Day 7): 2627.8 (18.89) hr*ng/mL | AUClast ([3]; fasted, Day 7): 2607.4 (19.10) hr*ng/mL | Cmax ([3]; fasted, Day 7): 1289.4 (39.17) ng/mL | TAMIC0.5 ([3]; fasted, Day 7): 2.1088 (16.74) h | TAMIC1.0 ([3]; fasted, Day 7): 0.732 (62.70) h | t1/2 ([3]; fasted, Day 7): 0.9376 (15.34) h | Tmax ([3]; fasted, Day 7): 0.9915 (0.5000-1.033) h | AUCtau ([3]; fasted, Day 7): 2626.3 (18.89) hr*ng/mL and 2626.3 hr*ng/mL | Cmax ([3]; fed, Day 1): 1730.9 (46.66) ng/mL | TAMIC0.5 ([3]; fed, Day 1): 3.0103 (31.13) h | TAMIC1.0 ([3]; fed, Day 1): 2.0882 (25.12) h | Tmax ([3]; fed, Day 1): 1.000 (1.5000-2.983) h | AUCtau ([3]; fed, Day 1): 4413.7 (27.00) hr*ng/mL | AUCinf ([3]; fed, Day 7): 3712.7 (24.27) hr*ng/mL | AUClast ([3]; fed, Day 7): 3537 (25.01) hr*ng/mL | Cmax ([3]; fed, Day 7): 1179.4 (25.94) ng/mL | TAMIC0.5 ([3]; fed, Day 7): 2.8507 (31.48) h | TAMIC1.0 ([3]; fed, Day 7): 1.3191 (62.54) h | t1/2 ([3]; fed, Day 7): 0.9114 (26.68) h | Tmax ([3]; fed, Day 7): 1.483 (2.0000-4.000) h | AUCtau ([3]; fed, Day 7): 3706.4 (24.21) hr*ng/mL
